O=C(O)/C=C/C(=O)O.OCCOCCN1CCN(C2=Nc3ccccc3Sc3ccccc32)CC1.OCCOCCN1CCN(C2=Nc3ccccc3Sc3ccccc32)CC1
solubility (mole fraction)
Conditions | 283.15 K | 288.15 K | 293.15 K | 298.15 K | 303.15 K | 308.15 K | 313.15 K | 318.15 K | 323.15 K
in 2-butanone | 0.000134 | 0.000164 | 0.000204 | 0.000251 | 0.000309 | 0.000382 | 0.000462 | 0.000581 | 0.000721
in MIBK | 0.000128 | 0.000153 | 0.000181 | 0.000224 | 0.000273 | 0.000328 | 0.000398 | 0.000475 | 0.000571
in MTBE | 4.36e-05 | 5.55e-05 | 6.74e-05 | 8.27e-05 | 0.000107 | 0.00013 | 0.000161 | 0.000192 | 0.000241
in THF | 0.000705 | 0.000873 | 0.00108 | 0.00133 | 0.00167 | 0.00208 | 0.00261 | 0.00323 | 0.00409
in dichloromethane | 0.000174 | 0.000213 | 0.000279 | 0.000365 | 0.00046 | 0.000597 | 0.000775 | – | –
in ethyl formate | 8.6e-05 | 0.000105 | 0.000125 | 0.000158 | 0.000197 | 0.00024 | 0.000291 | 0.000362 | 0.000445
in isopropyl acetate | 3.95e-05 | 4.7e-05 | 5.77e-05 | 6.96e-05 | 8.3e-05 | 0.000104 | 0.000127 | 0.000158 | 0.000191
in n-heptane | 1.59e-05 | 1.94e-05 | 2.44e-05 | 3.02e-05 | 3.61e-05 | 4.57e-05 | – | 6.96e-05 | –
in n-hexane | 1.46e-05 | 1.77e-05 | 2.17e-05 | 2.75e-05 | 3.3e-05 | 4.17e-05 | 5.15e-05 | 6.53e-05 | 8.16e-05
in n-propanol | 0.000244 | 0.000317 | 0.000396 | 0.000497 | 0.000614 | 0.000797 | 0.00101 | 0.00126 | 0.0016
in toluene | 3.01e-05 | 3.49e-05 | 4.19e-05 | 4.98e-05 | 5.82e-05 | 7.09e-05 | 8.5e-05 | 0.000102 | 0.000121

— BigSolDB 2.1
